How the values were obtained:
PKC = assay: Cell-based assay of PKC inhibition (PKC substrate phosphorylation in THP-1 cells); conditions: human THP-1 cells, 1.5 h compound, then 20 nM PMA for 30 min; read-out: absolute IC50, PKC substrate phosphorylation
Procedure: The purpose of this assay is to test the inhibitory effects of a test compound on PKC in a cell-based system by measuring the level of PKC substrate phosphorylation.
Staurosporin may be used as a positive control. It is prepared in DMSO to make up a […] solution and then serially diluted in plain RPMI 1640 culture medium (10 μM-0.0005 μM) to obtain a ten-point dilution curve. Test compounds are prepared in the same manner.
THP-1 cells (human macrophage cell line) are obtained from ATCC (ATCC TIB-202 lot 4028542). The cells are cultured in 96-well plates coated with poly-d-lysine (Becton Dickinson) with seeding density of 4000 cells/well in RPMI 1640 culture medium (Gibco) with 1% fetal bovine serum (Gibco). […]
After the incubation, the cells are first fixed in the Prefer fixative (ANATECH LTD) for 30 min at room temperature. […] Plates are scanned with an ACUMEN EXPLORER™ Laser-scanning fluorescence microplate cytometer (TTP LABTECH LTD), with 488 nm laser excitation to detect emission fluorescence at 655 nm-705 nm (emission of DNA bound propidium iodide) for cell counting/well, and emission of 505 nm-530 nm fluorescence of antibody binding to phosphorylated PKC substrates in cells. The main assay output is a ratio of total fluorescence of phosphorylated PKC substrates to total cell number (ratio=total intensity/total cell number). […]

[1] = tested on: persons with type 2 diabetes and nephropathy; conditions: in combination with an ACE inhibitor, ARB, or both; cited from earlier work

## CN(C)C[C@@H]1CCn2cc(c3ccccc32)C2=C(C(=O)NC2=O)c2cn(c3ccccc23)CCO1 [ruboxistaurin]
[1]
  effects on albuminuria and renal function: favorable effects on albuminuria and renal function

From US20170246166A1, “1,2-BENZOTHIAZOLE COMPOUNDS FOR THE TREATMENT OF KIDNEY DISORDERS” (priority 2014, published 2017)
